Reference: patent US8404225B2, “Contact sex pheromone component of the Emerald Ash Borer Agrilus planipennis Fairmaire (Coleoptera: Buprestidae)” (National Research Council of Canada, priority 2008, dated 2013)

What was measured:
[1] = test system: feral EAB males (Agrilus planipennis); test: Behavioral field bioassay with dummy females (feral male contact and mating behaviour); assay type: in vivo
Procedure: Preparation of dummy females. A total of 78 EAB females that emerged from 10-15 Jul. 2008 were reared for the field bioassay. Female EAB were reared in the quarantine facilities, as described above, until the age of 14 days, when they were frozen. Prior to the field bioassay, females were removed from the freezer and thawed for 2-3 h. For 52 of the females, each female was individually rinsed in 1 ml of hexane for about 2 min. Females were then allowed to dry for a minimum of 30 min before being rinsed again. Females were rinsed a total of three times for 2 min each time and left to dry overnight after the final rinsing. All 78 females were then individually pinned through the right elytra at its base; the heads of the pins were then snipped off such that the end of the pin was only about 1 mm above the surface of the female's body and thus would not interfere with approaches by feral male EAB. Twenty-six of the rinsed females were then treated with 1 μl of racemic 9-methyl pentacosane (ca. 5 mg/ml; one female equivalent), in solution with hexane, and allowed to dry. This divided the 78 females into three treatment groups (unwashed, washed, and washed then treated). The treatment groups were indicated by pinning a small paper insect ‘point’ underneath the female that was not visible from above. The points were colored white (unwashed), yellow (washed) or blue (washed then treated). […] Females were kept at 3-4° C. in a fridge for 2 days until used in the bioassay and were transported to the field in a cooler.
Behavioral field bioassay. The field bioassay was conducted from 7-11 Jul. 2008 at a site about 1.8 km northeast of Port Lambton, ON (42° 40.16′ N, 82° 29.56′ W). […] Dummy females were pinned to foliage on epicormic shoots of infested ash trees, growing from the base of the tree up to about 1.5 m above the ground. Females were placed and removed from foliage by grasping the pin underneath the female with tweezers and were never touched directly to avoid cross-contamination. Trees were chosen based on the presence of both epicormic shoots and feral EAB males on the foliage. Dummy females were placed in a triangle shape in groups of three (one of each treatment) about 20-30 cm apart. All females were pinned on south-facing foliage so that they would be in direct sunlight. From nine to 21 females were set up at different times on different trees, based on the amount of foliage available.
Observations of dummy females began once all females were established on the foliage, and lasted for about 1 h per observation session with breaks of 5-10 min in between observation sessions. We recorded the time of arrival of each male observed to land on a female and then the time of departure for that same male to obtain its total time spent in contact with a given female. The locations of the various treatments were not recorded, so the observations on time spent in contact by males was collected by observers who were unaware of the treatment. The treatment group (unwashed, treated, washed) was then recorded by checking for the presence of the colored insect point under the female's abdomen after the male had flown away. […]
The amount of time individual males spent in contact, and the percentage of that time spent attempting to mate, with females of the three different treatments were analyzed by one-way ANOVA after logarithmic transformation of data to meet the assumptions of normality of data and equality of variance; means were compared using the Holm-Sidak test. […]

[2] = test system: brown Spruce Longhorn Beetle (BSLB); conditions: inventors' soon to be published research; cited from earlier work

With CCCCCCCCCCCCCCCCC(C)CCCCCCCC (racemic) [9-Me-C25, 9-methyl pentacosane] the “number of wild males landing on females” value ([1]; hexane-washed freeze-killed females treated with 1 μl racemic 9-methyl pentacosane (ca. 5 mg/ml; one female equivalent), field, about 40 h of observation) was 27, the “percentage of contact time spent attempting to mate” value ([1]; subset of feral males (n=7 observations), one figure printed for unwashed and 9-Me-C25-treated females together, washed females about 20%) was 60%-70% and the “contact and copulatory activity after reapplication to hexane-rinsed females” value ([1]; synthetic 9-Me-C25 reapplied, field bioassays) was “restored almost all contact and copulatory activity”. The “time males spent on treated females compared with washed females” value ([1]; treated (n=27 observations) vs hexane-washed females (n=43), t=3.817, P=0.00004) was “significantly longer” and the “time males spent on treated females compared with unwashed females” value ([1]; treated (n=27 observations) vs unwashed females (n=36), t=0.138, P=0.89) was “slightly, but not significantly, less”.

In the case of CCCCCCCCCCCCCC[C@@H](C)CCCCCCCCCC (single isomer, unassigned) [11S-enantiomer], the “activity as a contact sex pheromone” value [2] is listed as “demonstrated activity”.
